“Also recorded” adds a separate entry of the source. No end group written: not given here.
Tests used:
[1] = system: primary cultured neurons treated with etoposide; assay: Etoposide toxicity on primary cultured neurons; format: cell-based, mouse; settings: 20 μM etoposide; 10 μM polypeptide
Method: 25 μM Aβ1-43 was added to primary cultured cortical neurons in the presence (at indicated concentrations) or absence of sHN, sHNG, or sHNA. Addition of HN polypeptides was performed similarly to that described in FIG. 14. 72 hours after the initiation of Aβ treatment, cell death was measured by trypan blue exclusion assay. Primary cultured neurons treated similarly for 72 hours with 20 μM etoposide in the presence or absence of 10 μM sHN or HN derivatives were used as the positive controls in these experiments. Similar experiments were performed at least three times, and reproducible results were obtained. Mean ±S.D. values of three independent experiments are indicated in the graphs. […]
(§1) Trypan blue exclusion assay was performed as follows. […] Within 3 minutes of the trypan blue solution addition, stained cells were counted. Cell mortality was determined [100-cell survival rate (%)] based on the stained cell count. […] Specifically, 6 μM Calcein-AM (3′, 6′-Di-(O-acetyl)-2′-7′-bis[N,N-bis(carboxymethyl)aminomethyl]fluorescein, tetraacetoxymethyl ester; Dojindo, Cat. #349-07201) was added to the neurons; and 30 minutes or longer after Calcein-AM treatment, fluorescence (ex=490 nm, em=515 nm) was observed by fluorescence microscopy, and measured by a spectrometer. Specific fluorescence was calculated by subtracting basal fluorescence from total fluorescence. […]

[2] = system: F11 cells transfected with V642I APP cDNA; assay: V642I APP-induced F11 cell death, trypan blue exclusion assay; format: cell-based; settings: for cell mortality (%): V642I APP cDNA, treated with 10 μM sHN polypeptides, 72 hours, mean ±S.D.
Method: (§2) F11 cells (Platika, D. et al. (1985) Proc. Natl. Acad. Sci. U.S.A. 82, 3499-3503; Yamatsuji, T. et al. (1996) Science 272, 1349-1352) were cultured in HamF-12 media containing 18% fetal bovine serum (FBS) and antibiotics. 7×10^4/well of F11 cells were seeded into a 6-well plate; cultured in HamF-12 containing 18% FBS for 12 to 16 hours; transfected 3 hours with plasmids encoding FAD genes and plasmids encoding HN (pHN, and such) by lipofection in the absence of serum (1 μg of FAD cDNA expression plasmid, 1 μg of HN cDNA expression plasmid, 4 μl of LipofectAMINE, 8 μl of Plus reagent); and then, were cultured for 2 hours in HamF-12 media containing 18% FBS. Then, culture media were exchanged with HamF-12 media containing 10% FBS; and the cells were cultured for additional 67 hours. 72 hours after transfection, cell death was measured by trypan blue exclusion assay. Experiments using synthetic HN polypeptides were conducted as follows: F11 cells (at 7×10^4/well in a 6-well plate) were transfected 3 hours with FAD genes in the absence of serum, as mentioned above; after cultivation for 2 hours in HamF-12 media containing 18% FBS, the cells were cultured for 67 hours in HamF-12 media containing 10% FBS with various concentrations of HN polypeptides; and cell death was measured by trypan blue exclusion assay. ALS-associated mutant cDNAs of SOD1 were also similarly transfected, and examined for their neurotoxicity.
(§3) Trypan blue exclusion assay was performed as follows. Without prewashing, the cells were suspended with gentle pipetting into a serum-free media. 50 μl of 0.4% trypan blue solution (Sigma, Cat. #T-8154) were added (final concentration of 0.08%) to 200 μl cell suspension, and the suspension was mixed at room temperature. Within 3 minutes of the trypan blue solution addition, stained cells were counted. Cell mortality was determined [100-cell survival rate (%)] based on the stained cell count. LDH assay was performed using a kit (LDH-Cytotoxic Test; Wako Pure Chemical Industries, Cat. #299-50601) by sampling 6 μl of media in which neurons were cultured. Calcein staining was performed as described in literature (Bozyczko-Coyne, D. et al. (1993) Journal of Neuroscience Methods 50, 205-216). Specifically, 6 μM Calcein-AM (3′, 6′-Di-(O-acetyl)-2′-7′-bis[N,N-bis(carboxymethyl)aminomethyl]fluorescein, tetraacetoxymethyl ester; Dojindo, Cat. #349-07201) was added to the neurons; and 30 minutes or longer after Calcein-AM treatment, fluorescence (ex=490 nm, em=515 nm) was observed by fluorescence microscopy, and measured by a spectrometer. Specific fluorescence was calculated by subtracting basal fluorescence from total fluorescence. Basal fluorescence was assigned to be the value calculated from linear trypan blue positivity-fluorescence intensity relationship, corresponding to 100% trypan blue positivity.

[3] = system: primary cultured cortical neurons treated with Aβ1-43; assay: Aβ1-43-induced cell damage of primary cultured cortical neurons, LDH release; format: cell-based, mouse; settings: 25 μM Aβ1-43; 10 μM polypeptide
Method: Primary culture of mouse cortical neurons was performed in poly-D-lysine-coated 24-well plates (Sumitomo Bakelite) in the absence of serum and in the presence of N2 supplement, as described in literature (Ecksioglu, Y. Z. et al. (1994) Brain Res. 644, 282-90). The purity of neurons prepared according to the method was >98%. The prepared neurons (1.25×10^5/well, 250 μl media/well) were preincubated in the absence or presence of 10 nM or 10 μM sHN polypeptides for 16 hours; and were treated with 25 μM Aβ1-43 in the absence or presence of sHN polypeptides at the same concentrations for 24 to 72 hours. […]
as §1

[4] = system: F11 cells transfected with FAD genes (V642I APP, NL-APP, M146L PS-1, N141I PS-2); assay: FAD gene-induced F11 cell death, trypan blue exclusion assay; format: cell-based, rat/mouse hybrid
Method: as §2, §3

[5] = system: F11/EcR cells transfected with ecdysone-inducible FAD gene plasmid; assay: Ecdysone-induced FAD gene expression F11/EcR cell death, trypan blue exclusion assay; format: cell-based; settings: 1 μM; NL-APP, V642I APP, M146L PS-1, N141I PS-2; ecdysone 72 hours
Method: F11/EcR cell experiment using ecdysone was conducted as follows: F11/EcR cells were seeded at 7×10^4/well into a 6-well plate; cultured for 12 to 16 hours in HamF-12 media containing 18% FBS; and were similarly transfected in the absence of serum for 3 hours with 1 μg of ecdysone-inducible plasmid alone, or with 1 μg of HN-encoding plasmid, as mentioned above. After culturing for 12 to 16 hours in HamF-12 media containing 18% FBS, the cells were cultured for 2 hours in HamF-12 media containing 10% FBS, then ecdysone (Ponasterone) was added to the media (final concentration of 40 μM). Cell death was measured 72 hours after ecdysone treatment. […] Cell death was measured by trypan blue exclusion assay after 72 hours from the ecdysone treatment. […]
as §1, with “spectrometer.” for “spectrometer. Specific fluorescence was calculated by subtracting basal fluorescence from total fluorescence.”

[6] = system: primary cultured cortical neurons treated with Aβ1-43; assay: Aβ1-43-induced cell death of primary cultured cortical neurons, trypan blue exclusion assay; format: cell-based; settings: for effect on Aβ1-43-induced cell death: 25 μM Aβ1-43, confirmed by LDH release and Calcein staining
Method: Primary culture of mouse cortical neurons was performed in poly-D-lysine-coated 24-well plates (Sumitomo Bakelite) in the absence of serum and in the presence of N2 supplement, as described in literature (Ecksioglu, Y. Z. et al. (1994) Brain Res. 644, 282-90). The purity of neurons prepared according to the method was >98%. The prepared neurons (1.25×10^5/well, 250 μl media/well) were preincubated in the absence or presence of 10 nM or 10 μM sHN polypeptides for 16 hours; and were treated with 25 μM Aβ1-43 in the absence or presence of sHN polypeptides at the same concentrations for 24 to 72 hours. Since primary cultured neurons are damaged even by temporary dryness during medium exchange, treatment of the cells by Aβ1-43 was performed as follows. First, half of the volume of the old medium (125 μl) was discarded. Then, 125 μl of pre-warmed fresh medium containing 50 μM Aβ1-43 and sHN with a concentration indicated above were added to the culture.
as §3

[7] = system: F11/EcR cells transfected with ecdysone-inducible Q79 plasmid; assay: Polyglutamine Q79-induced F11/EcR cell death (ecdysone-inducible), trypan blue exclusion assay; format: cell-based; settings: 1 μM polypeptide, 72 hours
Method: F11/EcR cell experiment using ecdysone was conducted as follows: F11/EcR cells were seeded at 7×10^4/well into a 6-well plate; cultured for 12 to 16 hours in HamF-12 media containing 18% FBS; and were similarly transfected in the absence of serum for 3 hours with 1 μg of ecdysone-inducible plasmid alone, or with 1 μg of HN-encoding plasmid, as mentioned above. After culturing for 12 to 16 hours in HamF-12 media containing 18% FBS, the cells were cultured for 2 hours in HamF-12 media containing 10% FBS, then ecdysone (Ponasterone) was added to the media (final concentration of 40 μM). Cell death was measured 72 hours after ecdysone treatment. Experiments using synthetic HN polypeptides were conducted as follows: cells were similarly transfected for 3 hours with FAD genes in the absence of serum; cultured for 12 to 16 hours in HamF-12 media containing 18% FBS; cultured for 2 hours in HamF-12 media containing 10% FBS and various concentrations of HN polypeptide; and then, 40 μM Ponasterone was added to the media. Cell death was measured by trypan blue exclusion assay after 72 hours from the ecdysone treatment. HD/SCA-associated Q79 cDNAs were also similarly transfected, and the neurotoxicity was tested.
Trypan blue exclusion assay was performed as follows. […] Within 3 minutes of the trypan blue solution addition, stained cells were counted. Cell mortality was determined [100-cell survival rate (%)] based on the stained cell count. […] Specifically, 6 μM Calcein-AM (3′, 6′-Di-(O-acetyl)-2′-7′-bis[N,N-bis(carboxymethyl)aminomethyl]fluorescein, tetraacetoxymethyl ester; Dojindo, Cat. #349-07201) was added to the neurons; and 30 minutes or longer after Calcein-AM treatment, fluorescence (ex=490 nm, em=515 nm) was observed by fluorescence microscopy, and measured by a spectrometer. Specific fluorescence was calculated by subtracting basal fluorescence from total fluorescence. Basal fluorescence was assigned to be the value calculated from linear trypan blue positivity-fluorescence intensity relationship, corresponding to 100% trypan blue positivity.

[8] = system: F11 cells transfected with SOD1 mutants (A4T, G85R, G93A); assay: ALS-associated SOD1 mutant-induced F11 cell death, trypan blue exclusion assay; format: cell-based, rat/mouse hybrid; settings: 100 μM polypeptide
Method: as §2, §1

CC[C@H](C)[C@H](NC(=O)[C@H](CCC(=O)O)NC(=O)[C@H](CO)NC(=O)[C@@H](NC(=O)[C@H](CC(C)C)NC(=O)[C@H](CC(C)C)NC(=O)[C@H](CC(C)C)NC(=O)[C@H](CC(C)C)NC(=O)[C@H](CS)NC(=O)[C@H](CO)NC(=O)[C@H](Cc1ccccc1)NC(=O)CNC(=O)[C@H](CCCNC(=N)N)NC(=O)[C@@H]1CCCN1C(=O)[C@H](C)NC(=O)[C@@H](N)CCSC)[C@@H](C)O)C(=O)N[C@@H](CC(=O)O)C(=O)N[C@@H](CC(C)C)C(=O)N1CCC[C@H]1C(=O)N[C@H](C(=O)N[C@@H](CCCCN)C(=O)N[C@@H](CCCNC(=N)N)C(=O)N[C@@H](CCCNC(=N)N)C(=O)N[C@@H](C)C(=O)O)C(C)C [sHN]
effect on toxic effect of etoposide [1]: could not prevent | suppression of V642I APP-induced cell death ([2]; 10 nM polypeptide): extremely weak suppression | suppression of V642I APP-induced cell death ([2]; 10 μM polypeptide): dramatically suppressed | IC50 ([2]; 72 h): ~100 nM | cell mortality (%) [2]: 14.4 ± 1.2 % | effect on cell damage (LDH released) by Aβ1-43 [3]: completely restored to a level observed under basal conditions | concentration blocking neuronal death induced by the FAD genes ([4]; NL-APP, M146L PS-1, N141I PS-2): 1 µM | extracellular concentration at which neuronal death is suppressed ([4]; chemically synthesized polypeptide): ≥ 10 nM | concentration of maximal (saturation) suppression of neuronal death ([4]; four types of AD genes, listed as Humanin): about 10 μM | effect on cell death by ecdysone-induced FAD genes, synthetic polypeptide [5]: significant suppressive effect | effect on Aβ1-43-induced cell death ([6]; 10 nM polypeptide): did not show any effect | effect on Aβ1-43-induced cell death ([6]; 10 μM polypeptide): completely restored to a level observed under basal conditions | effect on Q79-induced cell death, synthetic polypeptide [7]: Extensive cell death | effect on SOD1 mutant-induced cell death, synthetic polypeptide [8]: couldn't be suppressed

AGA-HNG: HNG (S14G HN) mutated at two positions, R4A/F6A (MAPAGASCLLLLTGEIDLPVKRRA; artificially synthesized sequence (AGA-HN))
concentration showing significant or sufficient neuroprotective action [4]: about 1 nM | concentration giving complete antagonism/rescue of neuronal death ([4]; all four types of FAD genes): 0.1 nM | neuroprotective activity relative to HNG ([4]; all types of cell death (FAD genes, Aβ)): higher rescue activity compared to HNG; also recorded: several folds higher | concentration giving complete rescue of cell death by Aβ ([6]; 25 μM Aβ1-43, 72 hours): 0.3 nM

ARGFSCLLLLTGEIDLP [SEQ ID NO: 25, ARGFSCLLLLTGEIDLP]
cell mortality ([6]; 25 μM Aβ1-43, 72 hours, 10 nM polypeptide, mean ±S.D.): 75.3±4.4%

HN-17: 17 amino acids from Pro3 to Pro19 of Humanin (PRGFSCLLLLTSEIDLP; artificially synthesized sequence (deltaN2 deltaC5-Humanin; HN-17 ))
antagonizing activity on FAD gene-induced cell death ([4]; 10 μM polypeptide, four FAD genes): sufficient antagonizing activity | activity to suppress cell death compared to the original HN ([4]; M146L PS-1): slightly lower activity | concentration showing sufficient protective action ([4]; any of the four FAD genes, dose-response): low μM

MAPRGFSALLLLTSEIDLPVKRRA [sHNA]
cell mortality (%) [2]: 52.5 ± 3.0% | suppression of V642I APP-induced cell death ([2]; concentrations up to 100 μM): did not significantly suppress | antagonism of cell death by FAD genes ([4]; NL-APP, M146L PS-1, N141I PS-2, up to 100 μM): did not antagonize | effect on Aβ1-43-induced cell death ([6]; 10 μM polypeptide): did not show any effect | effect on Q79-induced cell death, synthetic polypeptide [7]: Extensive cell death | effect on SOD1 mutant-induced cell death, synthetic polypeptide [8]: couldn't be suppressed

— patent US7314864B1, “Humanin, a polypeptide suppressing neuronal death” (Keio University, priority 1999, dated 2008)
